Data set [1] in a line: Solubility of compounds (II), (III) and (IV) compared with products (a) and (b). To be noted: for solubility: aqueous buffer.
The test system of data set [2] is human tumor line HOS (human osteosarcoma, ATCC). Description: Orthotopic xenogeneic murine model of osteolytic osteosarcoma (paratibial injection of HOS): tumor volume and radiographic evaluation. It counts as in vivo, immunosuppressed mice. To be noted: for Size of extraosseous tumors in relation to control group and vector 5 and/or doxorubicin groups: 25 μmol/kg 2x/wk intraperitoneally, HOS tumor in mice; for Fractures of the tibial metaphysis: Day 27, radiography, 90% of control animals have fractures; for Bone lesions (metaphyseal fractures, alteration of cortical integrity, new formation of ectopic bone): radiographic evaluation, compared with control and other groups. How it is done:
The antitumor activity of compounds (II) and (III) according to the invention was evaluated in an orthotopic, xenogeneic murine model of osteolytic osteosarcoma induced by paratibial injection of the human tumor line HOS (human osteosarcoma, ATCC) in immunosuppressed mice. The activity of the molecules according to the invention was compared with that of the two main subunits comprising them (doxorubicin and vector 5) alone or in combination. The treatments, on 10 animals per group, began the day following tumor induction and were administered intraperitoneally 1 to 2 times per week for 5 weeks. Tumor volumes were measured twice per week using a slide caliper and radiographic evaluation was carried out once per week. Tumor volume, expressed in mm^3, is calculated according to the following formula: V=(L×l^2)/2 (L and l, expressed in mm, correspond to the large length and the small length of the tumor, respectively).
The following treatment groups were thus studied, each on 10 mice: […]

The nature of data set [3]: Toxicity in mice (weight loss, cardiotoxicity, maximum usable dose). To be noted: for Dose giving similar weight loss, relative to doxorubicin alone (maximum usable dose study): mice, intravenously or intraperitoneally.
[4] abbreviates: 2 mg/ml solution of TRIS in water.

Values after ≈ are worked out from the molar mass of the structure shown. Where only a bound is given, the exact number is not on record here.

`COc1cccc2c1C(=O)c1c(O)c3c(c(O)c1C2=O)C[C@@](O)(/C(CO)=N/NC(=S)N/N=C/c1cccc(OCCCN(C)CCC(O)(P(=O)(O)O)P(=O)(O)O)c1)C[C@@H]3O[C@H]1C[C@H](N)[C@H](O)[C@H](C)O1` [(a)]: in data set [1] (setting [4]), the “Solubility in 2 mg/ml solution of TRIS in water” value is recorded as “insoluble”. Besides, the “Solubility in DPBS or water” value in data set [1] (DPBS or water) is “insoluble”. In addition, in data set [1] (ethanol or dimethylsulfoxide or mixtures thereof with water), the “Solubility in organic solvents” value was “insoluble”. Moreover, the “Solubility in water with organic or inorganic additives” value in data set [1] (water with organic additives (Tween, PEG, glycerin, glucose, TRIS) or inorganic additives (sodium carbonate or bicarbonate)) is listed as “insoluble”.
For `COc1cccc2c1C(=O)c1c(O)c3c(c(O)c1C2=O)C[C@@](O)(/C(CO)=N/NC(=S)N/N=C/c1cccc(OCCCN(C)CCC(O)(P(=O)(O)O)P(=O)(O)O)c1)C[C@@H]3O[C@H]1C[C@H](NC(=O)CCC(=O)O)[C@H](O)[C@H](C)O1` [(b)], in data set [1] (setting [4]), the “Solubility in 2 mg/ml solution of TRIS in water” value is recorded as “poorly soluble” and the solubility is about 1 mM (≈ 1.13 mg/mL). In data set [1] (DPBS or water), the “Solubility in DPBS or water” value is “insoluble”.
As to `COc1cccc2c1C(=O)c1c(O)c3c(c(O)c1C2=O)C[C@@](O)(/C(CO)=N/NC(=S)NNC(=O)CN(CCN(CC(=O)O)CC(=O)NNC(=S)N/N=C/c1cccc(OCCCN(C)CCC(O)(P(=O)(O)O)P(=O)(O)O)c1)CC(=O)O)C[C@@H]3O[C@H]1C[C@H](N)[C@H](O)[C@H](C)O1` [Compound (II)], in data set [2], the “Size of extraosseous tumors in relation to control group and vector 5 and/or doxorubicin groups” value is recorded as “significantly reduce”; the “Fractures of the tibial metaphysis” value is reported as “not detected in any of the mice”; the “Bone lesions (metaphyseal fractures, alteration of cortical integrity, new formation of ectopic bone)” value (“Bone lesions” for short) was “reduce”. For the same compound, the “Animals with a tumor greater than 1500 mm^3 in volume” value in data set [2] (Day 32, 10 mice per group) is listed as “only one mouse”. Also, in data set [3] (20 μmol/kg (molar equivalent dose to doxorubicin 12 mg/kg)), the “Signs of toxicity (very early weight loss, cardiotoxicity)” value is given as “do not induce these signs of toxicity”. Moreover, the “Dose giving similar weight loss, relative to doxorubicin alone (maximum usable dose study)” value in data set [3] turned out to be 13 times higher. Also, the solubility in data set [1] (DPBS or water) is about 255 mM (≈ 354 mg/mL).
For `COc1cccc2c1C(=O)c1c(O)c3c(c(O)c1C2=O)C[C@@](O)(/C(CO)=N/NC(=S)NNCc1cccc(OCCCN(C)CCC(O)(P(=O)(O)O)P(=O)(O)O)c1)C[C@@H]3O[C@H]1C[C@H](N)[C@H](O)[C@H](C)O1` [Compound (III)], in data set [2], the “Size of extraosseous tumors in relation to control group and vector 5 and/or doxorubicin groups” value is “significantly reduce”; the “Fractures of the tibial metaphysis” value is “not detected in any of the mice”; the “Bone lesions” value is “reduce”. Moreover, the “Dose giving similar weight loss, relative to doxorubicin alone (maximum usable dose study)” value in data set [3] worked out at 13 times higher. In addition, in data set [1] (DPBS or water), the solubility is about 160 mM (≈ 164 mg/mL).
On to `COc1cccc2c1C(=O)c1c(O)c3c(c(O)c1C2=O)C[C@@](O)(/C(CO)=N/OCC(O)(P(=O)(O)O)P(=O)(O)O)C[C@@H]3O[C@H]1C[C@H](N)[C@H](O)[C@H](C)O1` [Compound (IV)], for which the “Dose giving similar weight loss, relative to doxorubicin alone (maximum usable dose study)” value in data set [3] is recorded as 13 times higher. This compound displayed a solubility in data set [1] (DPBS or water) of about 315 mM (≈ 240 mg/mL).
Consider `COc1cccc2c1C(=O)c1c(O)c3c(c(O)c1C2=O)C[C@@](O)(C(=O)CO)C[C@@H]3O[C@H]1C[C@H](N)[C@H](O)[C@H](C)O1` [doxorubicin], for which the “Outcome after Day 27 (tumor volume)” value in data set [2] (after Day 27) is recorded as “had to be euthanized because of excessively large tumor volumes”. Further, the “Bone lesions” value in data set [2] is reported as “equivalent to those of the control group”. The same compound came in with a Weight loss in data set [3] (dose 12 mg/kg (20 μmol/kg), requiring euthanasia after 2 weeks of treatment) of over 10%.

In general, solubility refers to the dissolved amount per volume that the medium holds. Low values mean a poorly soluble substance, high ones a readily soluble substance.

For the origin of these results see US10238671B2, “Hydrosoluble hydroxybisphosphonic derivatives of doxorubicin” (Atlanthera, priority 2014, dated 2019).
